The supplement of paper PMC10307832

How the values were obtained:
Assay in all cases: relative viability (nuclei count vs DMSO), 5 days (fraction); higher = more cells survive
Idelalisib + Phenformin = compound: CC[C@H](Nc1ncnc2[nH]cnc12)c1nc2cccc(F)c2c(=O)n1-c1ccccc1 [Idelalisib] + N=C(N)NC(=N)NCCc1ccccc1 [Phenformin] (partner 250 µM)
How it was run: (§1)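 After 5 days of treatment, lung cancer cells in 1536-well plates were fixed and stained in a single step (final 0.05% Triton X-100, 1% formaldehyde, 1 ug/ml Hoechst) and their nuclei counted on 4× images. Treatment had been applied by pin tool the day after seeding as one drug alone or as a fixed anchor-drug dose with five library-drug doses (not always all listed) in √10 steps. Relative viability is the nuclei count of treated wells divided by that of vehicle wells, and values are medians of duplicate plates.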

Idelalisib + Navitoclax = compound: CC[C@H](Nc1ncnc2[nH]cnc12)c1nc2cccc(F)c2c(=O)n1-c1ccccc1 [Idelalisib] + CC1(C)CCC(c2ccc(Cl)cc2)=C(CN2CCN(c3ccc(C(=O)NS(=O)(=O)c4ccc(N[C@H](CCN5CCOCC5)CSc5ccccc5)c(S(=O)(=O)C(F)(F)F)c4)cc3)CC2)C1 [Navitoclax] (partner 0.5 µM)
How it was run: as §1

Idelalisib + Tozasertib = compound: CC[C@H](Nc1ncnc2[nH]cnc12)c1nc2cccc(F)c2c(=O)n1-c1ccccc1 [Idelalisib] + Cc1cc(Nc2cc(N3CCN(C)CC3)nc(Sc3ccc(NC(=O)C4CC4)cc3)n2)n[nH]1 [Tozasertib] (partner 0.1 µM)
How it was run: as §1

Pemetrexed + Bortezomib = compound: Nc1nc2[nH]cc(CCc3ccc(C(=O)N[C@@H](CCC(=O)O)C(=O)O)cc3)c2c(=O)[nH]1 [Pemetrexed] + CC(C)C[C@H](NC(=O)[C@H](Cc1ccccc1)NC(=O)c1cnccn1)B(O)O [Bortezomib] (partner 0.002 µM)
How it was run: as §1

Row | Cell Line | relative viability (Idelalisib + Phenformin; first compound 0.04 µM) | relative viability (Idelalisib + Phenformin; first compound 0.1265 µM) | relative viability (Idelalisib + Phenformin; first compound 0.4 µM) | relative viability (Idelalisib + Phenformin; first compound 1.265 µM) | relative viability (Idelalisib + Phenformin; first compound 4 µM) | relative viability (Idelalisib + Navitoclax; first compound 0.04 µM) | relative viability (Idelalisib + Navitoclax; first compound 0.1265 µM) | relative viability (Idelalisib + Navitoclax; first compound 0.4 µM) | relative viability (Idelalisib + Navitoclax; first compound 1.265 µM) | relative viability (Idelalisib + Navitoclax; first compound 4 µM) | relative viability (Idelalisib + Tozasertib; first compound 0.04 µM) | relative viability (Idelalisib + Tozasertib; first compound 0.1265 µM) | relative viability (Idelalisib + Tozasertib; first compound 0.4 µM) | relative viability (Idelalisib + Tozasertib; first compound 1.265 µM) | relative viability (Idelalisib + Tozasertib; first compound 4 µM) | relative viability (Pemetrexed + Bortezomib; first compound 0.002 µM) | relative viability (Pemetrexed + Bortezomib; first compound 0.006325 µM) | relative viability (Pemetrexed + Bortezomib; first compound 0.02 µM) | relative viability (Pemetrexed + Bortezomib; first compound 0.06325 µM) | relative viability (Pemetrexed + Bortezomib; first compound 0.2 µM)
1 | 201T | 0.497 | 0.416 | 0.328 | 0.488 | 0.423 | 1.17 | 1.13 | 1.25 | 1.24 | 1.1 | 1.07 | 1.01 | 0.785 | 0.947 | 0.667 | 1.05 | 1.11 | 1.12 | 1.09 | 1.03
2 | A549 | 0.36 | 0.182 |  | 0.154 | 0.178 | 1.5 | 1.23 | 1.22 | 1.33 | 1.02 |  |  |  |  |  |  |  |  |  | 
3 | A-427 | 0.36 | 0.318 | 0.287 | 0.372 | 0.328 | 0.939 | 0.91 | 1.01 | 1.06 | 0.811 | 0.222 | 0.222 | 0.219 | 0.196 | 0.181 | 0.929 | 1.06 | 1.04 | 0.96 | 1.06
4 | ABC-1 | 0.243 | 0.254 | 0.231 | 0.267 | 0.217 |  |  |  |  |  | 0.146 | 0.154 | 0.186 | 0.219 | 0.196 | 0.244 | 0.297 | 0.322 | 0.214 | 0.292
5 | BEN | 0.277 | 0.27 | 0.262 | 0.28 | 0.281 | 0.0556 | 0.0685 | 0.0581 | 0.0746 | 0.0521 | 0.479 | 0.562 | 0.542 | 0.488 | 0.413 | 0.838 | 0.847 | 1.01 | 0.855 | 0.688
6 | CAL-12T | 0.622 | 0.614 | 0.507 | 0.65 | 0.67 | 1.24 | 1.32 | 1.14 | 1.29 | 1.06 | 0.323 | 0.254 | 0.295 | 0.325 | 0.265 | 0.812 | 0.935 | 1.16 | 0.9 | 0.939
7 | COR-L23 | 0.439 | 0.39 | 0.411 | 0.433 | 0.517 | 1.07 | 0.965 | 1.05 | 1.11 | 1.02 | 0.196 | 0.195 | 0.207 | 0.225 | 0.162 | 0.795 | 0.939 | 0.995 | 0.376 | 0.179
8 | COR-L 105 | 0.592 | 0.473 | 0.433 | 0.564 | 0.421 | 0.794 | 1.04 | 0.805 | 0.893 | 0.52 | 0.354 | 0.321 | 0.312 | 0.334 | 0.357 | 0.842 | 0.704 | 1.05 | 0.924 | 0.783
9 | Calu-6 |  |  |  |  |  | 0.987 | 0.938 | 0.755 | 0.822 | 0.776 |  |  |  |  |  | 0.963 | 0.937 | 1.01 | 0.971 | 0.942
10 | ChaGo-K-1 | 0.49 | 0.453 | 0.424 | 0.477 | 0.436 | 1.03 | 1.01 | 1.12 | 1.09 | 1.14 | 0.244 | 0.227 | 0.197 | 0.212 | 0.187 | 1.09 | 1.11 | 1.05 | 0.332 | 0.307
11 | EBC-1 |  |  |  |  |  | 0.413 | 0.409 | 0.359 | 0.442 | 0.212 |  |  |  |  |  | 0.57 | 0.5 | 0.642 | 0.54 | 0.542
12 | EKVX | 0.244 | 0.258 | 0.213 | 0.225 | 0.234 | 0.863 | 0.914 | 0.876 | 0.807 | 0.853 | 0.411 | 0.419 | 0.336 | 0.342 | 0.317 | 0.939 | 0.946 | 0.971 | 0.979 | 0.553
13 | EMC-BAC-2 | 0.564 | 0.517 | 0.478 | 0.506 | 0.524 | 1.13 | 1.2 | 1.12 | 1.21 | 1.06 | 0.313 | 0.277 | 0.296 | 0.276 | 0.281 | 0.993 | 0.922 | 1.11 | 1.06 | 1.04
14 | EPLC-272H | 0.302 | 0.291 | 0.308 | 0.257 | 0.265 | 1.08 | 1.14 | 1 | 1 | 0.959 | 0.212 | 0.227 | 0.242 | 0.212 | 0.222 | 0.682 | 0.888 | 1.16 | 0.848 | 0.926
15 | H3255 | 0.359 | 0.329 | 0.351 | 0.352 | 0.336 | 0.617 | 0.513 | 0.506 | 0.415 | 0.38 | 0.646 | 0.852 | 0.583 | 0.568 | 0.544 |  | 0.834 | 0.933 | 0.692 | 0.572
16 | HARA | 0.525 | 0.52 | 0.432 | 0.45 | 0.416 | 1.2 | 1.11 | 1.17 | 1.16 | 1.09 | 0.0983 | 0.113 | 0.121 | 0.0975 | 0.101 | 0.567 | 1.12 | 1.17 | 0.846 | 0.453
17 | HCC-15 | 0.498 | 0.511 | 0.389 | 0.587 | 0.5 | 0.692 | 0.712 | 0.67 | 0.699 | 0.591 | 0.556 | 0.419 | 0.356 | 0.384 | 0.31 | 0.916 | 0.995 | 1.12 | 1.02 | 0.562
